Data from patent US9351944B1, “Malodor eliminating compositions” (TAKASAGO INTERNATIONAL CORPORATION, priority 2008, dated 2016).
Where “and” joins values, the source holds several entries; their conditions need not be identical. Equal values may be shown once.

Columns and labels:
[1] = Methyl mercaptan chemical suppression by Group A and Group B compounds (GC-PFPD); conditions: test material 200 ppm, malodor material 10 ppm, room temperature 2 hours, ethanol/deionized water
Protocol: 2 μl of 0.5%(w/v) of sodium methoxide in deionized water, 20 μl of 1% (w/v) test malodor eliminating material in ethanol, 80 μl of ethanol, and 900 μl of deionized water were added into a 2 ml GC vial, left to sit at room temperature for 2 hours, and analyzed using Multipurpose sampler-GC-PFPD (Gas Chromatography-Pulsed Flame Photometric Detector) (GC-PFPD)MPS2 (Gerstel)—GC; 6890N (Agilent)—PFPD; model 5380 (OI Analytical). As a control, ethanol was added instead of test malodor eliminating materials. The final concentration of test OE material and malodor material are 200 ppm and 10 ppmm, respectively. Malodor suppression was calculated as follows: Malodor Suppression (%)=(GC area of control sample−GC area of test_sample)/GC area of control sample×100

[2] = Propyl mercaptan chemical suppression by malodor eliminating materials (GC-PFPD); conditions: OE material 0.2%, malodor material 10 ppm, room temperature 2 hours, triplicate
Protocol: (§1) The selected OE materials were tested for propyl, allyl, and furfuryl mercaptan suppression. 100 μl of 0.01%(w/v) of test malodor material in ethanol, 2 μl of neat flavor oil and 900 μl of deionized water were added into a 4 ml vial and left to sit at room temperature for 2 hours. As a control, ethanol was added instead of test flavor materials. The final concentration of test OE material and malodor material are 0.2% and 10 ppm, respectively. 3 ml of ethanol was added into the resulting vial and the thiol level was analyzed using GC-PFPD. Each material was tested in triplicate. Malodor suppression was calculated as described in the example 1 above.

[3] = Allyl mercaptan chemical suppression by malodor eliminating materials (GC-PFPD); conditions: OE material 0.2%, malodor material 10 ppm, room temperature 2 hours, triplicate
Protocol: as §1

[4] = Furfuryl mercaptan chemical suppression by malodor eliminating materials (GC-PFPD); conditions: OE material 0.2%, malodor material 10 ppm, room temperature 2 hours, triplicate
Protocol: as §1

[5] = Methyl mercaptan suppression by Group A and Group B materials alone and combined (synergistic or additive activity); conditions: in ethanol, room temperature 2 hours
Protocol: The synergistic or additive activity of methyl mercaptan inhibition of malodor eliminating materials was tested. 5-40 μl of 1% (w/v) test OE materials in ethanol was placed into a 2 ml GC vial. Ethanol was added into this vial up to 1000 μl. 2 μl of 0.5%(w/v) of sodium methoxide in deionized water was added into the resulting vial, left to sit at room temperature for 2 hours, and analyzed using Multipurpose sampler-GC-PFPD. As a control, ethanol was added instead of test OE materials. Malodor suppression was calculated as described in Example 1 above.

[6] = Suppression of methyl mercaptan (Example 12, GC-PFPD); conditions: test material 0.2%, malodor material 10 ppm, room temperature 2 hours, triplicate
Protocol: 100 μl of 0.01%(w/v) of test malodor material in ethanol, 2 μl of neat flavor oil and 900 μl of deionized water were added into a 4 ml vial and left to sit at room temperature for 2 hours. As a control, ethanol was added instead of the malodor reducing compound. The final concentration of test material and malodor material are 0.2% and 10 ppmm, respectively. 3 ml of ethanol was added into the resulting vial and the thiol level was analyzed using GC-PFPD as described above. Each material was tested in triplicate. Malodor suppression was calculated as described in the example 1 above.

Compound	methyl mercaptan suppression (%) [1] [%]	Malodor reduction (%) propyl mercaptan [2] [%]	Malodor reduction (%) allyl mercaptan [3] [%]	Malodor reduction (%) furfuryl mercaptan [4] [%]	methyl mercaptan suppression (%) A alone ([5]; Group A level 200 ppm) [%]	methyl mercaptan suppression (%) [6] [%]	methyl mercaptan suppression (%) A alone ([5]; Group A level 200 ppm, listed as PIPERITONED) [%]	methyl mercaptan suppression (%) B alone ([5]; Group B level 400 ppm)	methyl mercaptan suppression (%) B alone ([5]; Group B level 100 ppm)	methyl mercaptan suppression (%) A alone ([5]; Group A level 50 ppm, listed as METHYL HEP CARB)
CC(=O)/C=C/C1=C(C)CCCC1(C)C [IONONE-BETA, ionone beta]	23	27	37	51	71	55				
piperitone-d [[…]]	37	<20	51	64	8	45	12			
C=CCc1ccc(O)c(OC)c1 [EUGENOL, eugenol]	46	44	63	80		78		12% and 14% and 15% and 16%		
C=C(C)[C@@H]1CC=C(C)C(=O)C1 [CARVONE-L, carvone-l]	14	<20	<20	27	12	60				
CC/C=C\CCOC(C)=O [HEXENYL CIS 3 ACETATE, cis-3-hexenyl acetate]	60	<20	<20	28		38			22% and 27%	
CCCCCC#CC(=O)OC [METHYL HEPTIN CARE, methyl heptin carbonate]	92	44	63	69		80				67% and 53%
